Laboratory results as given in patent US8993001B2, “Methods and compositions for treating feline hyperthyroidism” (Hill's Pet Nutrition, Inc., priority 2006, dated 2015).

Legend:
[1] = Serum creatinine in hyperthyroid cats, six-week study (Example 1); assay type: in vivo, cat
Procedure: (§1) Food B1 and food B2 were mixed in a 1:1 ratio, thus resulting in food B. A group of five cats diagnosed with hyperthyroidism was fed food B for six weeks. Another five cats diagnosed with hyperthyroidism were given 2.5 mg methimazole orally once a day for six weeks while they were fed food B. Eight cats diagnosed with hyperthyroidism were given 2.5 mg methimazole orally once a day for six weeks while they were fed a commercially available cat food. The thyroid hormone profiles and serum chemistries of all cats were measured at zero, two, four, and six weeks.

[2] = test system: cats diagnosed with hyperthyroidism; assay: Serum total T4 in hyperthyroid cats, six-week study (Example 1); assay type: in vivo, cat
Procedure: as §1, with “A” for “Food B1 and food B2 were mixed in a 1:1 ratio, thus resulting in food B. A”

[3] = cats diagnosed with hyperthyroidism, six weeks, methimazole 2.5 mg orally once a day where given

Change in Serum Creatinine Levels [1, 3]: +0.46 mg/dL
SMILES: Cn1cc[nH]c1=S [Methimazole, methimazole]
serum creatinine concentration relative to the normal creatinine concentration range ([1]; after six weeks, normal range 0.8-1.8 mg/dL): a bit higher than the 0.8-1.8 mg/dL normal creatinine concentration range | total T4 concentration relative to the normal total T4 concentration range ([2]; after six weeks): did not reach the normal total T4 concentration range | Change in Serum Total T4 Levels [2, 3]: -20.3 nmol/L
